Laboratory results taken from patent US20200029558A1, “Biocidal Microcapsules for Biofouling Control” (Greenseal Research Ltd, priority 2016, published 2020).

Legend:
Type in all cases: cell-based
[1] = system: Staphylococcus aureus (ATCC 25923); assay: Well diffusion antimicrobial bioassay of microcapsules; settings: wells approx. 5.0 mm, 37° C. 24 hours
Experimental: (§1) Bioassays were performed to assess the antimicrobial activity against Staphylococcus aureus (ATCC 25923) by the Well diffusion method, at different mediums (artificial sea water (Sera marine salt), DMSO and MilliQ water). Initially, the microorganisms were cultured on Muller-Hinton agar for bacteria Staphylococcus aureus. Then, 100 μL of a standardized microorganism suspension, corresponding to 0.5 McFarland, was used to inoculate a Petri dish of solid Mueller-Hinton medium. These suspensions were spread over the medium surface using a sterile swab. Subsequently, agar wells were made of approximately 5.0 mm in diameter with a Pasteur pipette. Then, 50 μL of each sample, negative control (DMSO) and positive control (Econea) for Gram positive bacteria (Staphylococcus aureus), were added on each of the wells. Plates were incubated at 37° C. for 24 hours. After this period, the diameters of the inhibition zones were measured and the results were expressed in millimeters (mm). The assay was performed under aseptic conditions and in triplicate [M. Pereira, D. Matias, F. Pereira, C. P. Reis, M. F. Simões, P. Rijo, Antimicrobial screening of Plectranthus madagascariensis and P. neochilus extracts, Biomedical and Biopharmaceutical Research, Vol. 12 (2015) 127-138]. Following the above described procedure, different mediums were used to assess the bioactivity of microcapsules, such as artificial sea water, MilliQ water and dimethyl sulfoxide (DMSO) (Table 1).
Following similar bioassays procedures as example 1, different mediums were used to assess the bioactivity of microcapsules, such as artificial sea water, MilliQ water and dimethyl sulfoxide (DMSO) (Table 3).

[2] = system: Staphylococcus aureus (ATCC25923); assay: Antimicrobial activity of coating formulation films containing biocidal microcapsules
Experimental: as §1, with “Following the above described procedure, different mediums were used to assess the bioactivity of microcapsules, such as artificial sea water, MilliQ water and dimethyl sulfoxide (DMSO) (Table 1).” left out

[3] = system: Staphylococcus aureus (ATCC25923); assay: Leaching tests on coated specimens (adapted OECD 313-2007), leaching waters assessed by bioassay; settings: after 30 days of exposure in artificial sea water, 120 rpm
Experimental: as §1, with “The assay was performed under aseptic conditions and in triplicate [M. Pereira, D. Matias, F. Pereira, C. P. Reis, M. F. Simões, P. Rijo, Antimicrobial screening of Plectranthus madagascariensis and P. neochilus extracts, Biomedical and Biopharmaceutical Research, Vol. 12 (2015) 127-138]. Following the above described procedure, different mediums were used to assess the bioactivity of microcapsules, such as artificial sea water, MilliQ water and dimethyl sulfoxide (DMSO) (Table 1).” left out
Leaching of the biocide through the paint films of coated specimens containing the developed biocidal MCs was assessed by leaching tests, following an adapted procedure from the standard OECD 313-2007. […] Finally, the antimicrobial activity of the leaching waters was assessed by bioassays against microorganisms such as Staphylococcus aureus, following the same procedure as described in the previous examples.

N#Cc1c(-c2ccc(Cl)cc2)[nH]c(C(F)(F)F)c1Br [Econea biocide, 2-(p-chlorophenyl)-3-cyano-4-bromo-5-trifluoromethyl pyrrole]
Inhibition zones ([1]; medium DMSO): 19 mm
Inhibition zones ([1]; medium MilliQ water): 23 mm
Inhibition zones ([1]; medium artificial sea water): 20 mm
Inhibition zones of polyurethane based coating formulations ([2]; medium DMSO): 20 mm
Inhibition zones of polyurethane based coating formulations ([2]; medium artificial sea water): 18 mm
Inhibition zones of leaching waters of immersed coated specimens [3]: 20 mm
